In patent US20230203482A1, “Methods of Rescuing Stop Codons via Genetic Reassignment with ACE-tRNA” (THE WISTAR INSTITUTE OF ANATOMY AND BIOLOGY, priority 2017, published 2023):

B1: Glychr19.trna2: top performing glycine ACE-tRNA UGA suppressor, SEQ ID NO: 53 (nucleic acid)
chain: GCGTTGGTGGTATAGTGGTTAGCATAGCTGCCTTCAAAGCAGTTGACCCGGGTTCGATTCCCGGCCAACGCA
modifications: chemistry not fully specified

System: native stop codons (TAA, TAG, TGA) of HEK293 transcripts
Assay: Ribosome footprint profiling of transcriptome-wide 3′UTRs
Assay type: cell-based, human
Conditions: for ribosome occupancy at each nucleotide in the 3′UTR downstream of stop codons: HEK293, log 2-fold change versus control; for readthrough of native stop codons / global translation termination: HEK293, summary in discussion
Text: The question was raised whether ACE-tRNAs that show efficacious suppression of premature stop codons may also induce global readthrough of native stop codons. To address this potential “off target” suppression, a transcriptome-wide quantitative profile of actively engaged ribosomes on all cellular transcripts was obtained by generating libraries of ribosome footprints from HEK293 cells expressing exogenous ACE-tRNAs or a control mock plasmid (puc57GG). Streptomycin was removed from the growth media to prevent readthrough artifacts. For comparison, the ribosome footprint library was also generated from cells in the presence or absence of G418 (150 μM, 48 hours). […] Only transcripts with a minimum threshold of 5 RPKM in the coding sequence and 0.5 RPKM in the 3′UTR in two replicate libraries were included for the quantitation comparison (254 transcripts in G418 and 495-748 transcripts in ACE-tRNAs). […] ACE-tRNAs examined here had no detectable change of 3′UTR ribosome density with the exception of ACE-tRNA Gln-UAA and Arg-UGA which induced approximately a 2-fold increase in 3′UTR ribosome density for the cognate stop codon complimentary to the ACE-tRNA anticodon. Understanding the biological significance of 2-fold readthrough of protein stops will require further study, but this effect is substantially lower compared to the 100- to 1000-fold suppression of PTC for the same ACE-tRNA.
Multiple in-frame stop codons are frequently found at the end of genes^37-39 and may cause a minor difference in overall 3′UTR ribosome density for ACE-tRNA and G418 treatment. Ribosome occupancy was examined at each nucleotide in the 3′UTR within a 60 nt region downstream of the stop codons. […] Reads were normalized per total million-mapped reads, compared against control cells, and reported as a log 2-fold change as in panel A. More than 5,200 transcripts were mapped to at least 1 footprint in the region of interest. […] Taken together, the ribosome profiling data argue that efficiency of native stop codon suppression by ACE-tRNAs is generally low, and markedly less than the level of PTC suppression.
Ribosome Footprint Profiling Library preparation. HEK293 cells transiently transfected with ACE-tRNAs and control plasmid (puc57GG) were grown in standard grown media in the absence of Pen-Strep for 48 h. Libraries were prepared as described^55, with a few modifications. Briefly, cells were rapidly cooled by addition of ice-cold PBS, lysed in lysis buffer (20 mM Tris-HCl/pH7.4, 150 mM NaCl, 5 mM MgCl2, 1 mM DTT, 1% (v/v) Triton X-100, and 25 U ml^−1 Turbo DNase I) for 10 min on ice, and triturated with ten times through a 26-G needle. After clearance by centrifugation at 16,000 g for 10 min at 4° C., the lysates were digested with 100 U RNase I (Ambion, USA) per A260 lysate at room temperature for 45 min with gentle agitation prior to adding 200 U RiboLock RNase Inhibitor (Thermo Scientific). Ribosome protected mRNA fragments were then isolated by loading lysates onto a 1M sucrose cushion prepared in modified polysome buffer (20 mM Tris-HCl/pH7.4, 150 mM NaCl, 8.5 mM MgCl2, 0.5 mM DTT, 20 U ml^−1 RiboLock RNase Inhibitor) and centrifugated at 70,000 rpm at 4° C. for 2 h using a Beckmen TLA-110 rotor. Ribosome pellets containing mRNA footprints were extracted using TRIzol and separated on a denaturing 12% polyacrylamide gel containing 8M urea. RNA fragments with sizes ranging from 26 to 34 nt were manually excised from the gel stained with SYBR Gold (Invitrogen) and isolated to generate the ribosome-protected fragment library. Contaminating rRNA fragments depleted using a Ribo-Zero kit (Illumina). 3′ Oligonucleotide adaptor ligation, reverse transcription, circularization, and secondary rRNA depletion using biotinylated rRNA depletion oligos (Table 9) were performed as described^55. Libraries were barcoded using indexing primers for each sample during PCR amplification. […]

Molecule	ribosome occupancy at each nucleotide in the 3′UTR downstream of stop codons	readthrough of native stop codons / global translation termination
Trpchr17.trna39: top performing tryptophan ACE-tRNA UGA suppressor, SEQ ID NO: 48	no observable change of ribosome occupancy	no significant effect on global translation termination
B1	no observable change of ribosome occupancy	no significant effect on global translation termination
